Series [1] in a line: Jurkat reporter gene cellular assay. Type of series: cell-based. As to conditions: Homo sapiens; Jurkat/NF-κB-luc/PD1 + Raji-PD-L1 coculture, OKT3 1 μg/mL, 6 hrs, activation fold; read-out: Cell Activity EC50. The method, then: The effect of compounds of the examples of the present invention and positive compounds on the interaction between PD-1 and PD-L1 expressed on cell surfaces, and the related influence on T cell functions, were determined by a Jurkat reporter gene cellular assay.
Briefly, the reporter gene plasmid of NF-κB-luc and the plasmid of human PD-1 were transfected into Jurkat cells to establish a stably transfected cell line capable of stably expressing both PD-1 and NF-κB-Luc reporter genes; the expression level of PD-1 on the cell surface was confirmed by flow cytometry; and the expression of the reporter gene was confirmed via the response of the reporter gene stimulated by OKT-3 and Raiji cells.
In addition, the plasmid of human PD-L1 was transfected into Raji cells to obtain a cell line capable of stably expressing PD-L1. Jurkat/NF-κB-luc/PD1 cells and Raji-PD-L1 cells were then cocultured and stimulated with OKT-3. On this basis, the compounds were added, and the enhancement of the signal pathway of T cell activation by the inhibitory effect of the compounds on the interaction between PD-1 and PD-L1 was evaluated by readings of reporter gene responses. The specific experimental process was as follows: • 1) 30 μL of compound or antibody solution was added to each well of a white 96-well plate (coming, 3610) at different diluted concentrations, and 10 μL of OKT3 (Biolegend, 317326) was then added (the final concentration of OKT3: 1 μg/mL); • 2) 20 μL of Raji-PD-L1 cell suspension was added to each well with 5*10^4 cells for each well, and was incubated in an incubator for 20 min: • 3) 20 μL of Jurkat/NF-κb-luc/PD-1 cell suspension was added to each well with 5*10^4 cells for each well, and well mixed, and 6 hrs later, Bright-glo (Promega, E2620) was applied and plates were read on Envision; • 4) The reading of each well treated with the compound was compared with the reading of each well treated with DMSO to obtain the activation fold of the compound; • 5) EC50 values of compounds and positive compounds of the examples of the present invention were determined by non-linear regression analysis of activation folds at different compound concentrations.
A general note: A reporter such as luciferase makes a cellular process visible.

The target in series [2] is interaction between PD-1 and PD-L1 (Homo sapiens (Human), UniProt Q9NZQ7). Briefly: PD1-PDL1 HTRF binding activity test. As to conditions: Cisbio PD-1/PD-L1 binding assay kit. The method, then: I. PD1-PDL1 HTRF Binding Activity Test
The effect of compounds of the examples of the present invention on the interaction between PD-1 and PD-L1 was determined by the PD-1/PD-L1 binding assay kit from Cisbio (#64ICP01PEG or 64ICP01PEH). The detailed experimental process was as follows: • 1) Pre-diluted compound solution, 4 μL of Tag1-PD-L1 and 4 μL of Tag2-PD1 were added to each well of a 384-well plate: • 2) After the mixture was incubated at room temperature for 15 min, 5 μL of anti-Tag1-Eu3+ antibody and 5 μL of anti-Tag2-XL665 antibody were then added; • 3) After incubated for 2 hrs at room temperature or overnight at 4° C., plates were read on Envision of Pelkin Elmer; and readings at 665 nm and 620 nm were recorded, and the ratio of the two readings was taken as a reading for each well; • 4) The reading of each well after compound treatment was compared with the reading of DMSO treated wells to obtain the percent inhibition of the compound; • 5) IC50 values of compounds and positive compounds of the examples of the present invention were determined by non-linear regression analysis of percent inhibition at different compound concentrations. II. Jurkat Reporter Gene Cellular Assay
(In general: Time-resolved FRET reads energy transfer from a long-lived donor to a nearby acceptor.)

A short description of series [3]: Pharmacokinetic assay in mice. Type of series: in vivo. As to conditions: male, mouse; ICR mice, PO 10 mg/kg, plasma. Here is the method:
III. Pharmacokinetic Assay in Mice
The purpose of this study was to study the pharmacokinetic behaviors of some compounds of the present invention, and administration routes were: per oral administration (PO) to ICR mice at a dose of 10 mg/kg.
The compounds used in this test came from the compounds of the specific examples of the present invention.
ICR mice, male, N=3, with the original source of Shanghai Sippr-BK Laboratory Animal Co. Ltd.
2.3 Preparation and Administration of Drug
The compounds were weighed, and dissolved in a solvent of 0.5% SDS+0.5% CMCNa. The mixture solutions were mixed well by shaking and ultrasonic treatment to obtain colorless clear solutions. The solutions were orally administered to nine mice after an overnight fast. The dosage of administration was 10 mg/kg.
• 1) With about 90 μL/time point, blood was drawn from the submaxillary vein, and heparin sodium was added for anticoagulation. The blood samples were placed onto the ice, and were centrifuged (centrifugation conditions: 8000 r/min, 6 min, 2-8° C.) within 1 hr to obtain plasmas. • 2) The time points for blood sampling were at 0 hr, 0.25 hr, 0.5 hr, 1 hr, 2 hrs, 4 hrs, 6 hrs, 8 hrs and 24 hrs after administration. The samples were stored in a refrigerator at −20° C. • 3) 40 μL of plasma sample was added to 160 μL of cold acetonitrile containing an internal standard, and the mixture solution was vortexed for 3 min and centrifuged at 11,000 r/min for 5 min. • 4) 100 μL of supernate was taken and added to 100 μL of water, and 5 μL of the sample was taken and analyzed by LC/MS/MS.
The compounds from some representative examples of the present invention were administered and tested according to the above method, and their prototype compounds were detected.

Chain of interaction between PD-1 and PD-L1 (Q9NZQ7 19-238): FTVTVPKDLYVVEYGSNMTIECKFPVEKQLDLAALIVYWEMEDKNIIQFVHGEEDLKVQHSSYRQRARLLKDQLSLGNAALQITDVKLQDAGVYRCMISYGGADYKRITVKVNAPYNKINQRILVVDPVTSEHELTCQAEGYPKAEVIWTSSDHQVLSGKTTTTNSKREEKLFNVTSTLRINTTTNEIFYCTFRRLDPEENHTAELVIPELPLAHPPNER

As usually defined, the EC50 is the concentration that produces a half-maximal response. As usually defined, the IC50 is the concentration at which inhibition is half-maximal. Lower therefore signals inhibition by little substance. For `CC(C)N1CCc2cc(/C(F)=C/c3cccc(-c4cccc(NC(=O)c5nc6c(n5C)CCN(CCC57CCC(C(=O)O)(CC5)C7)C6)c4Cl)c3Cl)ncc2C1` [Example 25, (Z)-4-(2-(2-((2,2′-dichloro-3′-(2-fluoro-2-(7-isopropyl-5,6,7,8-tetrahydro-2,7-naphthyridin-3-yl)vinyl)-[1,1′-biphenyl]-3-yl)carbamoyl)-1-methyl-1,4,6,7-tetrahydro-5H-imidazo[4,5-c]pyridin-5-yl)ethyl) bicyclo[2.2.1]heptane-1-carboxylic acid], the EC50 in series [1] was determined as 86.3 nM. The compound also had an IC50 in series [2] of 0.358 nM.

In the case of `CCN1CCc2cc(C(=O)Nc3cccc(-c4cccc(NC(=O)c5nc6c(n5C)CCN(CCC57CCC(C(=O)O)(CC5)C7)C6)c4Cl)c3Cl)ncc2C1` [Example 3, 4-(2-(2-((2,2′-dichloro-3′-(7-ethyl-5,6,7,8-tetrahydro-2,7-naphthyridine-3-carboxamido)-[1,1′-biphenyl]-3-yl)carbamoyl)-1-methyl-1,4,6,7-tetrahydro-5H-imidazo[4,5-c]pyridin-5-yl)ethyl)bicyclo[2.2.1] heptane-1-carboxylic acid], the EC50 in series [1] is 47.6 nM. For the same compound, the IC50 in series [2] is 0.174 nM.

`Cn1c(C(=O)Nc2cccc(-c3cccc(NC(=O)c4cc5c(cn4)CN(C4CCCC4)CC5)c3Cl)c2Cl)nc2c1CCN(CCC13CCC(C(=O)O)(CC1)C3)C2` [Example 64, 4-(2-(2-((2,2′-dichloro-3′-(7-cyclopentyl-5,6,7,8-tetrahydro-2,7-naphthyridine-3-carboxamido)-[1,1′-biphenyl]-3-yl)carbamoyl)-1-methyl-1,4,6,7-tetrahydro-5H-imidazo[4,5-c]pyridin-5-yl)ethyl)bicyclo [2.2.1]heptane-1-carboxylic acid]: the half-maximal effective concentration (EC50) in series [1] worked out at 155 nM.

As for `CN(C)C(=O)CCCCN1CCc2cc(C(=O)Nc3cccc(-c4cccc(NC(=O)c5nc6c(n5C)CCN(CCC57CCC(C(=O)O)(CC5)C7)C6)c4Cl)c3Cl)ncc2C1` [Example 16, 4-(2-(2-((2,2′-dichloro-3′-(7-(5-(dimethylamino)-5-oxopentyl)-5,6,7,8-tetrahydro-2,7-naphthyridine-3-carboxamido)-[1,1′-biphenyl]-3-yl)carbamoyl)-1-methyl-1,4,6,7-tetrahydro-5H-imidazo[4,5-c]pyridin-5-yl)ethyl)bicyclo[2.2.1]heptane-1-carboxylic acid], the EC50 in series [1] came out at 83.5 nM.

In the case of `Cn1c(C(=O)Nc2cccc(-c3cccc(NC(=O)c4cc5c(cn4)CN([C@H]4CCC[C@@H]4O)CC5)c3Cl)c2Cl)nc2c1CCN(CCC13CCC(C(=O)O)(CC1)C3)C2` [Example 61, 4-(2-(2-((2,2′-dichloro-3′-(7-((1S,2S)-2-hydroxycyclopentyl)-5,6,7,8-tetrahydro-2,7-naphthyridine-3-carboxamido)-[1,1′-biphenyl]-3-yl)carbamoyl)-1-methyl-1,4,6,7-tetrahydro-5H-imidazo[4,5-c]pyridin-5-yl)ethyl)bicyclo[2.2.1]heptane-1-carboxylic acid], in series [1], the EC50 came out at 83.2 nM.

What is called AUC(0-t) is the area under the concentration-time curve up to a stated or last time point. A high value points to high exposure. What is called Cmax is the highest concentration seen after dosing. One may read the MRT as a mean duration of stay, worked out from the concentration-time curve. The term Tmax denotes the time at which the peak concentration occurs. The term half-life denotes how long it takes for the measured level to halve. High values mean slow decline, low ones rapid decline. In the case of `CC(C)N1CCc2cc(C(=O)Nc3cccc(-c4cccc(NC(=O)c5cc(C6CC6)c(CN6CCCC[C@H]6C(=O)O)cn5)c4Cl)c3Cl)ncc2C1` [Example 32, (S)-1-((4-cyclopropyl-6-((2,2′-dichloro-3′-(7-isopropyl-5,6,7,8-tetrahydro-2,7-naphthyridine-3-carboxamido)-[1,1′-biphenyl]-3-yl)carbamoyl)pyridin-3-yl)methyl)piperidine-2-carboxylic acid], in series [1], the concentration giving a half-maximal response (EC50) came out at 25 nM. Also, in series [3], the AUC(0-t) was 10200 ng·h/mL, the peak level (Cmax) was 2570 ng/mL, the mean residence time (MRT) stood at 2.9 h and the Tmax came out at 0.5 h. The half-life in series [3] was 1.3 h.

With `Cn1c(C(=O)Nc2cccc(-c3cccc(NC(=O)c4cc5c(cn4)CN(CCCO)CC5)c3Cl)c2Cl)nc2c1CCN(CCC13CCC(C(=O)O)(CC1)C3)C2` [Example 9, 4-(2-(2-((2,2′-dichloro-3′-(7-(3-hydroxypropyl)-5,6,7,8-tetrahydro-2,7-naphthyridine-3-carboxamido)-[1,1′-biphenyl]-3-yl)carbamoyl)-1-methyl-1,4,6,7-tetrahydro-5H-imidazo[4,5-c]pyridin-5-yl)ethyl) bicyclo[2.2.1]heptane-1-carboxylic acid], the 50% effective concentration (EC50) in series [1] was 177 nM.

As for `CC(C)N1CCc2cc(C(=O)Nc3cccc(-c4cccc(NC(=O)c5nc6c(n5C)CCN(CCC57CCC(C(=O)O)(CC5)C7)C6)c4Cl)c3Cl)ncc2C1C` (stereo not drawn) [Example 18, 4-(2-(2-((2,2′-dichloro-3′-(7-isopropyl-8-methyl-5,6,7,8-tetrahydro-2,7-naphthyridine-3-carboxamido)-[1,1′-biphenyl]-3-yl)carbamoyl)-1-methyl-1,4,6,7-tetrahydro-5H-imidazo[4,5-c]pyridin-5-yl)ethyl) bicyclo[2.2.1]heptane-1-carboxylic acid], the EC50 in series [1] was 90.7 nM.

Consider `O=C1CC[C@@H](CNCc2cnc3c(Nc4cccc(-c5cccc(NC(=O)c6cc7c(cn6)CN(CC68CCC(C(=O)O)(CC6)C8)CC7)c5Cl)c4Cl)nccc3c2)N1` [Example 78, (S)-4-((6-((2,2′-dichloro-3′-((3-((((5-oxopyrrolidin-2-yl)methyl)amino)methyl)-1,7-naphthyridin-8-yl)amino)-[1,1′-biphenyl]-3-yl)carbamoyl)-3,4-dihydro-2,7-naphthyridin-2(1H)-yl)methyl)bicyclo[2.2.1] heptane-1-carboxylic acid], for which the EC50 in series [1] was determined as 504 nM.

Regarding `CC(C)N1CCc2cc(C(=O)Nc3cccc(-c4cccc(NC(=O)c5nc6c(n5C)CCN(CC[C@H]5CC[C@H](C(=O)O)CC5)C6)c4Cl)c3Cl)ncc2C1` [Example 23, (1R,4R)-4-(2-(2-((2,2′-dichloro-3′-(7-isopropyl-5,6,7,8-tetrahydro-2,7-naphthyridine-3-carboxamido)-[1,1′-biphenyl]-3-yl)carbamoyl)-1-methyl-1,4,6,7-tetrahydro-5H-imidazo[4,5-c]pyridin-5-yl)ethyl) cyclohexane-1-carboxylic acid], in series [1], the EC50 was 60.7 nM.

On to `O=C1CC[C@@H](CNCc2cnc3c(Nc4cccc(-c5cccc(/C=C(\F)c6cc7c(cn6)CN(CCC68CCC(C(=O)O)(CC6)C8)CC7)c5Cl)c4Cl)nccc3c2)N1` [Example 75, (S,Z)-4-(2-(6-(2-(2,2′-dichloro-3′-((3-((((5-oxopyrrolidin-2-yl)methyl)amino)methyl)-1,7-naphthyridin-8-yl)amino)-[1,1′-biphenyl]-3-yl)-1-fluorovinyl)-3,4-dihydro-2,7-naphthyridin-2(1H)-yl)ethyl)bicyclo [2.2.1]heptane-1-carboxylic acid], for which, in series [1], the EC50 was 1130 nM.

Source of the values: patent publication US12552811B2, “Immunosuppressant, and preparation method therefor and use thereof” (Abbisko Therapeutics Co., Ltd., priority 2020, dated 2026).
